Measured values published in paper PMC4514850, “A Novel TGR5 Activator WB403 Promotes GLP-1 Secretion and Preserves Pancreatic β-Cells in Type 2 Diabetic Mice” (PLoS ONE, 2015).
Entries after “also recorded” stand apart in the source; their conditions may differ.

Experiments:
HFD/STZ mice = experiment: oral glucose tolerance test in HFD/STZ mice; assay type: in vivo; conditions: 2 g/kg glucose, oral 50, 100 mg/kg 30 min before load
Procedure: For generation of nongenetic mice model of type 2 diabetes, ICR mice were fed with high fat diet (HFD, with 60% fat, Research Diets) for three weeks, then fasted for 5 h before receiving a single dose of streptozotocin (STZ, Sigma) intraperitoneally (ip) at 80 mg/kg to induce partial insulin deficiency. […] Diabetes was assessed using conventional criteria. Mice with similar degree of hyperglycemia and body weight were randomized into various groups in order to get a similar average PBG in each group.
Mice were fasted overnight (14 h) before glucose tolerance tests. Normal mice received a 4 g/kg glucose challenge and for diabetic mice it’s 2 g/kg. WB403 at 50, 100 mg/kg, or sitagliptin at 100 mg/kg were administrated orally 30 min prior to glucose load (n = 10). For vehicle group, 0.5% CMC was administrated. Blood glucose levels were measured from tail bleeds with a glucometer (Roche, Accu-Chek Performa) at specified time points. Animals were treated and assessed in the order of the vehicle, WB403 50, 100 mg/kg and sitagliptin 100 mg/kg group.
Fig 2 Effects of WB403 on glucose tolerance during OGTT in normal and diabetic mice. OGTT time course and AUC in normal mice (A, B), HFD/STZ mice (C, D) and db/db mice (E, F). Values represent mean ± SD (n = 10). *p<0.05, **p<0.01, ***p<0.001 vs. vehicle group. Asterisks in A, C and E reflect significance between WB403 100 mg/kg and vehicle group.

gallbladders of mice = experiment: gallbladder filling in normal mice; assay type: in vivo; conditions: 200 mg/kg ip, normal mice fasted overnight, gallbladders removed 30 min later, n = 10
Excerpt: Fig 1 WB403 activated TGR5 and promoted active GLP-1 secretion. (A) WB403 stimulated hTGR5 in CRE-luciferase report system at the concentration range of 1–20 μmol/l. (B) WB403 stimulated hTGR5 specific cAMP accumulation at the concentration range of 1–50 μmol/l. n = 3. **p<0.01, ***p<0.001 vs. DMSO (+TGR5) group. (C) The hTGR5 targeted CRE-luciferase activity of WB403 and ZY403. […] (D) Effect of WB403 and ZY403 on gallbladders of mice. Normal mice were fasted overnight and treated with compounds (200 mg/kg) or vehicle (DMSO) by ip injection. Gallbladders (GB) were removed 30 min later and volumes measured then normalized to body weight (B.W.). n = 10. **p<0.01 vs. vehicle group. (E) Structure of WB403 and ZY403. WB403 promoted GLP-1 secretion in NCI-H716 cells (F), primary enterocytes (G), and MIN6 cells (H). n = 3. *p<0.05, **p<0.01, ***p<0.001 vs. vehicle group. (I) WB403 promoted GLP-1 in ICR mice. n = 5. **p<0.01 vs. vehicle group. Values represent mean ± SEM.

hGPR119 = biological target: T1, hGPR119 (Homo sapiens, UniProt Q8TDV5); experiment: GPR119-dependent cAMP accumulation in transfected 293T cells; assay type: cell-based; conditions: 10, 20 μmol/l
T1 construct: host or cells: 293T cells, transient transfection with pGPR119
T1 sequence (Q8TDV5 1-335): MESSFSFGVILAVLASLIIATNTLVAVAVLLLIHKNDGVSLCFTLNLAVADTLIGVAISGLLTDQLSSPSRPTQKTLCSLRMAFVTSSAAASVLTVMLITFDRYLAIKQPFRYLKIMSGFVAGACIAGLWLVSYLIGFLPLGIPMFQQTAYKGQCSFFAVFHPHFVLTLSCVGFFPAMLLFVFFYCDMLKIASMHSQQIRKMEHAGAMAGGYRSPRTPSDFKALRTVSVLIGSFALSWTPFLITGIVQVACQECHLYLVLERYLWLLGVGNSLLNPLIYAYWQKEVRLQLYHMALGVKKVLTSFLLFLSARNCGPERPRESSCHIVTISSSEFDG
Procedure: For human TGR5 luciferase (luc) assay, 293T cells were co-transfected with pCRE-luc, pTGR5 (kind gift from Prof. Johan Auwerx, Ecole Polytechnique Fédérale de Lausanne, Lausanne, Switzerland) and pRenilla (Promega, USA). WB403 was added 5 h later. Cells were harvested after 16 h and subjected to luciferase analysis on Lumistar Optima chemiluminescent detector (BMG labtech, Germany). For cAMP testing, 293T cells transiently transfected with pTGR5 or pGPR119 (GeneCopoeia, USA) were washed by FBS-free DMEM, and stimulated with WB403 in FBS-free DMEM containing 3-isobutyl-1-methyl-xanthine (IBMX, Sigma). Cell lysates were collected 30 min later and used for cAMP ELISA assay. FLIPR Calcium 5 assay kit (Molecular Devices, USA) was used for calcium mobilization assay. 293-GPR40 stable cells (kindly provided by Prof. Naiming Zhou of Zhejiang University, Hanzhou, China) or 293 cells transient transfected with GPR120 were seeded at 50,000 cells per well in black-walled clear-bottomed 96-well plates (Costar). […] Increase of the intracellular Ca^2+ concentration was monitored by Flexstation 3 system (Molecular Devices, USA).
The GLP-1 (active) ELISA kit was purchased from Millipore, and insulin ELISA kit was from Mercodia. For quantitative determination of cAMP, a competitive enzyme immunoassay kit from R&D system was used. […]

CCc1cc(-c2nc(C)c(COCc3ccc(Br)cc3)s2)ccn1 [WB403, 4-(5-((4-bromobenzyloxy)-methyl)-4-methylthiazol-2-yl)-2-ethylpyridine]
blood glucose tolerance (OGTT) vs vehicle (HFD/STZ mice): The same results | gallbladder filling (gallbladders of mice): did not | hGPR119 dependent cAMP accumulation (hGPR119): did not show significant stimulation activity; also recorded: no significant stimulation effect
